Laboratory results reported in PubChem BioAssay AID1259407 (Chemical Carcinogenesis Research Information System (CCRIS), 2018).
Activity calls are given as the source filed them. No rule for the calls is given here.

Test system: CCRIS mutagenicity, Ames/micronucleus/aberration tests
Assay: CCRIS mutagenicity studies

O=NO
mutagenic call (End Point: IN VIVO MICRONUCLEUS, Test System: BONE MARROW POLYCHROMATIC ERYTHROCYTES, Species: MOUSE, Strain/Sex: DDY/MALE, Route: IP): inactive; negative
mutagenic call (End Point: IN VIVO MICRONUCLEUS, Test System: BONE MARROW POLYCHROMATIC ERYTHROCYTES, Species: MOUSE, Strain/Sex: DDY/MALE, Route: ORAL): inactive; negative
mutagenic call (End Point: In vitro chromosomal aberrations, Test System: Chinese hamster lung CHL/IU cells, Metabolic Activation: None): inactive; negative
mutagenic call (Test System: AMES SALMONELLA TYPHIMURIUM, Strain/Indicator: DJ400, Metabolic Activation: NONE, Method: PREINCUBATION): inactive; negative
mutagenic call (Test System: AMES SALMONELLA TYPHIMURIUM, Strain/Indicator: DJ400, Metabolic Activation: NONE, Method: STANDARD PLATE): inactive; negative
mutagenic call (Test System: AMES SALMONELLA TYPHIMURIUM, Strain/Indicator: DJ400, Metabolic Activation: RAT, LIVER, S-9, AROCLOR 1254, Method: PREINCUBATION): inactive; negative
mutagenic call (Test System: AMES SALMONELLA TYPHIMURIUM, Strain/Indicator: DJ400, Metabolic Activation: RAT, LIVER, S-9, AROCLOR 1254, Method: STANDARD PLATE): inactive; negative
mutagenic call (Test System: AMES SALMONELLA TYPHIMURIUM, Strain/Indicator: DJ460, Metabolic Activation: NONE, Method: PREINCUBATION): inactive; negative
mutagenic call (Test System: AMES SALMONELLA TYPHIMURIUM, Strain/Indicator: DJ460, Metabolic Activation: NONE, Method: STANDARD PLATE): inactive; negative
mutagenic call (Test System: AMES SALMONELLA TYPHIMURIUM, Strain/Indicator: DJ460, Metabolic Activation: RAT, LIVER, S-9, AROCLOR 1254, Method: PREINCUBATION): inactive; negative
mutagenic call (Test System: AMES SALMONELLA TYPHIMURIUM, Strain/Indicator: DJ460, Metabolic Activation: RAT, LIVER, S-9, AROCLOR 1254, Method: STANDARD PLATE): inactive; negative
mutagenic call (Test System: AMES SALMONELLA TYPHIMURIUM, Strain/Indicator: TA97, Metabolic Activation: NONE, Method: STANDARD PLATE): inactive; negative
mutagenic call (Test System: AMES SALMONELLA TYPHIMURIUM, Strain/Indicator: TA97, Metabolic Activation: RAT, LIVER, S-9, AROCLOR 1254, Method: STANDARD PLATE): inactive; negative
mutagenic call (Test System: AMES SALMONELLA TYPHIMURIUM, Strain/Indicator: TA98, Metabolic Activation: HAMSTER LIVER S-9, AROCLOR 1254 (30%), Method: PREINCUBATION): inactive; negative
mutagenic call (Test System: AMES SALMONELLA TYPHIMURIUM, Strain/Indicator: TA98, Metabolic Activation: HAMSTER, LIVER, S-9, AROCLOR 1254 (30%), Method: PREINCUBATION): inactive; negative
mutagenic call (Test System: AMES SALMONELLA TYPHIMURIUM, Strain/Indicator: TA98, Metabolic Activation: NONE, Method: PREINCUBATION): inactive; negative
mutagenic call (Test System: AMES SALMONELLA TYPHIMURIUM, Strain/Indicator: TA98, Metabolic Activation: NONE, Method: STANDARD PLATE): inactive; negative
mutagenic call (Test System: AMES SALMONELLA TYPHIMURIUM, Strain/Indicator: TA98, Metabolic Activation: RAT LIVER S-9, AROCLOR 1254 (30%), Method: PREINCUBATION): inactive; negative
mutagenic call (Test System: AMES SALMONELLA TYPHIMURIUM, Strain/Indicator: TA98, Metabolic Activation: RAT, LIVER, S-9, AROCLOR 1254 (30%), Method: PREINCUBATION): inactive; negative
mutagenic call (Test System: AMES SALMONELLA TYPHIMURIUM, Strain/Indicator: TA98, Metabolic Activation: RAT, LIVER, S-9, AROCLOR 1254, Method: STANDARD PLATE): inactive; negative
mutagenic call (Test System: AMES SALMONELLA TYPHIMURIUM, Strain/Indicator: TA98, Metabolic Activation: RAT, LIVER, S-9, Method: STANDARD PLATE): inactive; negative
mutagenic call (Test System: AMES SALMONELLA TYPHIMURIUM, Strain/Indicator: TA100, Metabolic Activation: HAMSTER LIVER S-9, AROCLOR 1254 (30%), Method: PREINCUBATION): active; positive
mutagenic call (Test System: AMES SALMONELLA TYPHIMURIUM, Strain/Indicator: TA100, Metabolic Activation: HAMSTER, LIVER, S-9, AROCLOR 1254 (30%), Method: PREINCUBATION): active; positive
mutagenic call (Test System: AMES SALMONELLA TYPHIMURIUM, Strain/Indicator: TA100, Metabolic Activation: NONE, Method: PREINCUBATION): active; positive
mutagenic call (Test System: AMES SALMONELLA TYPHIMURIUM, Strain/Indicator: TA100, Metabolic Activation: NONE, Method: STANDARD PLATE): active; positive
mutagenic call (Test System: AMES SALMONELLA TYPHIMURIUM, Strain/Indicator: TA100, Metabolic Activation: RAT LIVER S-9, AROCLOR 1254 (30%), Method: PREINCUBATION): active; positive
mutagenic call (Test System: AMES SALMONELLA TYPHIMURIUM, Strain/Indicator: TA100, Metabolic Activation: RAT, LIVER, S-9, AROCLOR 1254 (30%), Method: PREINCUBATION): active; positive
mutagenic call (Test System: AMES SALMONELLA TYPHIMURIUM, Strain/Indicator: TA100, Metabolic Activation: RAT, LIVER, S-9, AROCLOR 1254, Method: PREINCUBATION): active; positive
mutagenic call (Test System: AMES SALMONELLA TYPHIMURIUM, Strain/Indicator: TA100, Metabolic Activation: RAT, LIVER, S-9, AROCLOR 1254, Method: STANDARD PLATE): active; positive
mutagenic call (Test System: AMES SALMONELLA TYPHIMURIUM, Strain/Indicator: TA100, Metabolic Activation: RAT, LIVER, S-9, Method: STANDARD PLATE): active; positive
mutagenic call (Test System: AMES SALMONELLA TYPHIMURIUM, Strain/Indicator: TA102, Metabolic Activation: NONE, Method: PREINCUBATION): inactive; negative
mutagenic call (Test System: AMES SALMONELLA TYPHIMURIUM, Strain/Indicator: TA102, Metabolic Activation: NONE, Method: STANDARD PLATE): inactive; negative
mutagenic call (Test System: AMES SALMONELLA TYPHIMURIUM, Strain/Indicator: TA102, Metabolic Activation: RAT, LIVER, S-9, AROCLOR 1254, Method: PREINCUBATION): inactive; negative
mutagenic call (Test System: AMES SALMONELLA TYPHIMURIUM, Strain/Indicator: TA102, Metabolic Activation: RAT, LIVER, S-9, AROCLOR 1254, Method: STANDARD PLATE): inactive; negative
mutagenic call (Test System: AMES SALMONELLA TYPHIMURIUM, Strain/Indicator: TA104, Metabolic Activation: RAT, LIVER, S-9, AROCLOR 1254, Method: PREINCUBATION): active; positive
mutagenic call (Test System: AMES SALMONELLA TYPHIMURIUM, Strain/Indicator: TA1530, Metabolic Activation: NONE, Method: PREINCUBATION): active; positive
mutagenic call (Test System: AMES SALMONELLA TYPHIMURIUM, Strain/Indicator: TA1530, Metabolic Activation: NONE, Method: STANDARD PLATE): active; positive
mutagenic call (Test System: AMES SALMONELLA TYPHIMURIUM, Strain/Indicator: TA1530, Metabolic Activation: RAT, LIVER, S-9, AROCLOR 1254, Method: PREINCUBATION): active; positive
mutagenic call (Test System: AMES SALMONELLA TYPHIMURIUM, Strain/Indicator: TA1530, Metabolic Activation: RAT, LIVER, S-9, AROCLOR 1254, Method: STANDARD PLATE): active; positive
mutagenic call (Test System: AMES SALMONELLA TYPHIMURIUM, Strain/Indicator: TA1535, Metabolic Activation: NONE, Method: PREINCUBATION): active; positive
mutagenic call (Test System: AMES SALMONELLA TYPHIMURIUM, Strain/Indicator: TA1535, Metabolic Activation: NONE, Method: STANDARD PLATE): active; positive
mutagenic call (Test System: AMES SALMONELLA TYPHIMURIUM, Strain/Indicator: TA1535, Metabolic Activation: RAT, LIVER, S-9, AROCLOR 1254, Method: PREINCUBATION): active; positive
mutagenic call (Test System: AMES SALMONELLA TYPHIMURIUM, Strain/Indicator: TA1535, Metabolic Activation: RAT, LIVER, S-9, AROCLOR 1254, Method: STANDARD PLATE): active; positive
mutagenic call (Test System: AMES SALMONELLA TYPHIMURIUM, Strain/Indicator: TA1535, Metabolic Activation: RAT, LIVER, S-9, Method: STANDARD PLATE): active; positive
mutagenic call (Test System: AMES SALMONELLA TYPHIMURIUM, Strain/Indicator: TA1537, Metabolic Activation: NONE, Method: STANDARD PLATE): inactive; negative
mutagenic call (Test System: AMES SALMONELLA TYPHIMURIUM, Strain/Indicator: TA1537, Metabolic Activation: RAT, LIVER, S-9, AROCLOR 1254, Method: STANDARD PLATE): inactive; negative
mutagenic call (Test System: AMES SALMONELLA TYPHIMURIUM, Strain/Indicator: TA1538, Metabolic Activation: NONE, Method: STANDARD PLATE): inactive; negative
mutagenic call (Test System: AMES SALMONELLA TYPHIMURIUM, Strain/Indicator: TA1538, Metabolic Activation: RAT, LIVER, S-9, AROCLOR 1254, Method: STANDARD PLATE): inactive; negative
mutagenic call (Test System: AMES SALMONELLA TYPHIMURIUM, Strain/Indicator: TA1538, Metabolic Activation: RAT, LIVER, S-9, Method: STANDARD PLATE): inactive; negative
mutagenic call (Test System: AMES SALMONELLA TYPHIMURIUM, Strain/Indicator: YG1024, Metabolic Activation: NONE, Method: PREINCUBATION): inactive; negative
mutagenic call (Test System: AMES SALMONELLA TYPHIMURIUM, Strain/Indicator: YG1024, Metabolic Activation: NONE, Method: STANDARD PLATE): inactive; negative
mutagenic call (Test System: AMES SALMONELLA TYPHIMURIUM, Strain/Indicator: YG1024, Metabolic Activation: RAT, LIVER, S-9, AROCLOR 1254, Method: PREINCUBATION): inactive; negative
mutagenic call (Test System: AMES SALMONELLA TYPHIMURIUM, Strain/Indicator: YG1024, Metabolic Activation: RAT, LIVER, S-9, AROCLOR 1254, Method: STANDARD PLATE): inactive; negative
mutagenic call (Test System: CHINESE HAMSTER V-79, Strain/Indicator: V-79/6-THIOGUANINE, Metabolic Activation: NONE): active; positive
mutagenic call (Test System: E. COLI, Strain/Indicator: WP2, Metabolic Activation: NONE, Method: STANDARD PLATE): inactive; negative
mutagenic call (Test System: E. COLI, Strain/Indicator: WP2, Metabolic Activation: RAT, LIVER, S-9, AROCLOR 1254, Method: STANDARD PLATE): inactive; negative
mutagenic call (Test System: E.COLI, Strain/Indicator: WP2UVRA/PKM101, Metabolic Activation: NONE, Method: PREINCUBATION): inactive; negative
mutagenic call (Test System: E.COLI, Strain/Indicator: WP2UVRA/PKM101, Metabolic Activation: RAT LIVER S-9, PHENOBARBITAL AND 5,6-BENZOFLAVONE, Method: PREINCUBATION): inactive; negative
mutagenic call (Test System: MOUSE LYMPHOMA, Strain/Indicator: L5178Y (TK+/TK-), Metabolic Activation: NONE, Method: SUSPENSION/PLATE): active; positive
